In patent publication US11976091B2, “Terpene glycoside derivatives and uses thereof” (Firmenich SA, priority 2018, dated 2024):

How the values were obtained:
[1] = system: panel of 8 trained people; experiment: Sensory evaluation of taste properties (descriptive), samples in 4% w/w sucrose solution; format: in vivo; conditions: for Description (taste properties: sweet, licorice and sweet lingering): panel of 8 trained people
Description: A composition comprising Compound I was generated according to the methods described in Example 1. The composition was dissolved in a 4% w/w sucrose solution, at a final concentration of 30 ppm. A panel of 8 trained people evaluated the test solution, as well as samples comprising rebaudioside A, rebaudioside D, or rebaudioside M for taste properties (sweet, licorice and sweet lingering).

[2] = system: panel of 8 trained people; experiment: Sensory evaluation of taste properties on a scale of −5 to 5 versus 4% w/w sucrose reference solution; format: in vivo; conditions: for Licorice / Sweet / Sweet Lingering: 30 ppm in 4% w/w sucrose solution, scale −5 to 5 (−5 no effect, 5 extremely strong effect, 0 = 4% w/w sucrose reference); for tastes enhanced in the 4% sucrose base: 30 ppm in 4% sucrose base
Description: In another experiment, a composition comprising compound of formula I was generated according to the methods described in Example 1. The composition was dissolved in a 4% w/w sucrose solution. A panel of 8 trained people evaluated the test solutions for taste properties (sweet, licorice and sweet lingering) on a scale of −5 to 5 (−5 denoted no effect and 5 denoted extremely strong effect, 0 being the intensity of a reference water solution containing either (i) 4% w/w sucrose solution. The results are shown in the table below.

[3] = 30 ppm in 4% w/w sucrose solution

| SMILES | Description (taste properties: sweet, licorice and sweet lingering) [1, 3] | Licorice [2] | Sweet [2] | Sweet Lingering [2] | effect for licorice and sweet lingering tastes ([2]; dosage of 30 ppm in 4% sucrose base) | effect on sweet intensity in the 4% sucrose base ([2]; dosage of 30 ppm, 95% of confidence level) | tastes enhanced in the 4% sucrose base [2] | licorice taste compared to the other samples [1, 3] | lingering taste compared to the others ([1]; 30 ppm test samples in 4% w/w sucrose solution) |
| --- | --- | --- | --- | --- | --- | --- | --- | --- | --- |
| C=C1C[C@@]23CC[C@H]4[C@@](C)(CCC[C@@]4(C)C(=O)O[C@@H]4OC(CO[C@@H]5OC(CO)[C@@H](O)C(O)C5O)[C@@H](O)C(O)C4O)[C@@H]2CC[C@]1(O[C@@H]1OC(CO)[C@@H](O)C(O[C@@H]2OC(CO)[C@@H](O)C(O)C2O)C1O[C@@H]1OC(CO)[C@@H](O)C(O)C1O)C3 (some centres unmarked) [Compound I] | Sweet, licorice, lingering | 1.4 | 1.1 | 0.4 | without any significant effect | significantly enhanced | – | – | – |
| C=C1C[C@@]23CC[C@H]4[C@@](C)(CCC[C@@]4(C)C(=O)O[C@@H]4O[C@H](CO)[C@@H](O)[C@H](O)[C@H]4O)[C@@H]2CC[C@]1(O[C@@H]1O[C@H](CO)[C@@H](O)[C@H](O[C@@H]2O[C@H](CO)[C@@H](O)[C@H](O)[C@H]2O)[C@H]1O[C@@H]1O[C@H](CO)[C@@H](O)[C@H](O)[C@H]1O)C3 [Reb A, rebaudioside A] | Sweet, licorice, lingering, slightly | 1.3 | 1.5 | 0.5 | – | – | enhancing sweet and sweet lingering tastes | – | – |
| C=C1C[C@@]23CC[C@H]4[C@@](C)(CCC[C@@]4(C)C(=O)O[C@@H]4O[C@H](CO)[C@@H](O)[C@H](O)[C@H]4O[C@@H]4O[C@H](CO)[C@@H](O)[C@H](O)[C@H]4O)[C@@H]2CC[C@]1(O[C@@H]1O[C@H](CO)[C@@H](O)[C@H](O[C@@H]2O[C@H](CO)[C@@H](O)[C@H](O)[C@H]2O)[C@H]1O[C@@H]1O[C@H](CO)[C@@H](O)[C@H](O)[C@H]1O)C3 [Reb D, rebaudioside D] | Sweet, lingering, licorice | 1.3 | 1.5 | 0.4 | – | – | – | – | – |
| C=C1C[C@@]23CC[C@H]4[C@@](C)(CCC[C@@]4(C)C(=O)O[C@@H]4O[C@H](CO)[C@@H](O)[C@H](O[C@@H]5O[C@H](CO)[C@@H](O)[C@H](O)[C@H]5O)[C@H]4O[C@@H]4O[C@H](CO)[C@@H](O)[C@H](O)[C@H]4O)[C@@H]2CC[C@]1(O[C@@H]1O[C@H](CO)[C@@H](O)[C@H](O[C@@H]2O[C@H](CO)[C@@H](O)[C@H](O)[C@H]2O)[C@H]1O[C@@H]1O[C@H](CO)[C@@H](O)[C@H](O)[C@H]1O)C3 [Reb M, rebaudioside M] | Licorice, sweet, lingering | 1.3 | 1.6 | 0.8 | – | – | enhancing all sweet, licorice and sweet lingering tastes | stronger licorice taste | – |
| OC[C@H]1O[C@@](CO)(O[C@H]2O[C@H](CO)[C@@H](O)[C@H](O)[C@H]2O)[C@@H](O)[C@@H]1O [Sucrose, sucrose] | Sweet, slightly lingering | – | – | – | – | – | – | – | weaker lingering taste than others |
